According to US20080280954A1, “Method of Improving Wakefulness” (VANDA PHARMACEUTICALS, INC, priority 2005, published 2008):
Like-named read-outs stand apart in the source and are kept apart here.

Tests used:
[1] = test system: sleep-wakefulness cycle in rats with lesions of the nucleus basalis of Meynert (NBM) and locus coeruleus (LC)
Method: In a second set of experiment, oral actions of Compound A were evaluated in the sleep-wakefulness cycle in rats with lesions of the nucleus basalis of Meynert (NBM) and locus coeruleus (LC). For this purpose the salt form multifumarate (mfu) was used.
Male rats were used. They were anesthetized with pentobarbital (50 mg/kg i.p.) and positioned in a stereotaxic apparatus with the upper incisor bar set 5 mm (locus coeruleus, LC) or 3.3 mm (Nucleus basalis of Meynert, NBM) below the interaural line. The lesions were carried out with a radio frequency lesion generator at 60° C. in 10 sec. A corresponding group of sham lesioned rats was carried out. The animals were individually kept in single cage during 6 months after the lesions. Five months after lesion, cortical electrodes were implanted. The animals were caged in a room, maintained at a constant temperature of 22° C. and artificially lighted for 12 hours daily. Before beginning of the experiment, the animals were given a 1 day period of acclimatization in the recording cages. These were tall plastic cylinders within the animals had complete freedom of movement even when the recording cables were attached. ECOG recordings were made continuously during 22-hours period/day, 15 min after the installation of the animal or 15 min after drug administration.
Four groups of animals were studied (A1-4), and statistical analysis (T-test, p<0.05) was performed between the different groups.
A1: 5 lesioned animals, which had received 35 days after lesion 3 mg/kg p.o. of
Compound A during 5 days. Implementation of electrodes 5 months later.
Recording of ECOG on the 22d and 23d days after implantation.
A2: Same as A1 but treated with vehicle instead of Compound A.
A3: S Same as A1 but with Sham rats instead of lesioned animals.
A4: Same as A3 but treated with vehicle instead of Compound A.

[2] = test system: sleep-wakefulness cycle in rats
Method: In a first set of experiments, the oral (p.o.) and subcutaneous (s.c.) actions of Compound A were evaluated in the sleep-wakefulness cycle in rats. For this purpose the salt forms multifumarate (mfu) or fumarate (fu) were used.
The experiments were carried out in nonanesthetized unrestrained male Wistar rats prepared with chronically implanted electrodes for the recording of the electrocorticogram (ECoG). The animals were caged in a room, maintained at a constant temperature of 22° C. and artificially lighted for 12 hours daily. Before beginning of the experiment, the animals were given a 1 to 3 day period of acclimatization in the recording cages and had complete freedom of movement even when the recording cables were attached. The ECOG recordings were made continuously during 22 to 23-hours period, 15 min after drug administration. Each animal served as its own control. In one experiment, recordings of EcoG were also obtained after administration of distilled water (vehicle used with Compound A) for comparison with no administration, or administration of Compound A.

[3] = 3 mg/kg p.o. (mfu) during 5 days, 35 days after lesion, all recording periods
[4] = 10 mg/kg p.o., 7-11 hours after administration
[5] = 30 mg/kg p.o., first 4 hours of recording

`Cc1nccn1Cc1ccccn1` [Compound A, [2-(2-methylimidazol-1-yl)methyl]pyridine] was tested, and the “lesion-induced decrease of classical sleep” value [1, 3] was “partly prevented”, the “lesion-induced increase of wakefulness” value [1, 3] was “partly prevented” and the “alterations of the sleep-wakefulness cycle due to the lesions” value ([1]; 3 mg/kg p.o. (mfu) during 5 days, 35 days after lesion, recording more than 5 months later, all recording periods) was “important reduction”. For the same molecule, the “nycthemeral cycle abnormalities induced by simultaneous LC+NBM lesions” value ([1]; several months after last administration) was “reduce”, the REM sleep duration ([2]; 1 mg/kg s.c., first 2 hours) was “reduced” and the wakefulness ([2]; 1 mg/kg s.c., first 4 hours) was “enhanced”. The “slow-wave sleep (SWS) sleep onset” value ([2]; 3 mg/kg p.o.) was “significantly delayed”, the active waking ([2]; 3 mg/kg p.o., between 0-4 and 7-11 hours) was “tended to be increased” and the REM sleep duration ([2]; 3 mg/kg p.o., first 4 hours) was “reduced”. The classical sleep ([2]; 3 mg/kg p.o., first 4 hours) was “reduced”, the wakefulness ([2]; 3 mg/kg p.o., first 4 hours) was “increase” and the active waking ([2]; 3 mg/kg p.o., last recording interval 18.75-23 hours) was “significantly increased”. The REM sleep onset ([2]; 10 mg/kg p.o.) was “strongly delayed”, the SWS onset ([2]; 10 mg/kg p.o.) was “tended to also delay” and the active waking ([2]; 10 mg/kg p.o., 0-4 hours after administration) was “significantly increased”. The REM sleep [2, 4] was “tended to be increased”, the SWS duration [2, 4] was “decreased” and the waking time [2, 4] was “significantly increased”. The classical sleep ([2]; 10 mg/kg p.o., during 3 hours) was “decreased”, the waking time ([2]; 10 mg/kg p.o., first 6 hours) was “tended to increase” and the REM sleep duration ([2]; 10 mg/kg p.o., for several hours) was “significantly reduced”. For the same molecule, the REM sleep onset ([2]; 30 mg/kg p.o.) was “strongly delayed”, the SWS onset ([2]; 30 mg/kg p.o.) was “strongly delayed” and the “time the decrease of REM sleep lasted” value ([2]; 30 mg/kg p.o.) was “about 11 hours”. For the same molecule, the “time the increase of wakefulness lasted” value ([2]; 30 mg/kg p.o.) was “about 9 hours”, the REM sleep duration ([2]; 30 mg/kg p.o., 4-7 hours after administration) was “decreased” and the REM sleep duration [2, 5] was “decreased”. For the same molecule, the SWS duration [2, 5] was “decreased”, the waking time [2, 5] was “increased” and the “changes in the rat nycthemeral rhythm” value ([2]; 3, 10 and 30 mg/kg (mfu) p.o., 3 and 10 mg/kg (fu) p.o., 1, 3 and 10 mg/kg (mfu) s.c., dose dependent) was “significant changes”. The “effects on sleep-wakefulness cycle compared with oral administration” value ([2]; 3 and 10 mg/kg s.c.) was “nearly the same effects as by oral administration”, the “effect availability (s.c. versus p.o. action)” value ([2]; action quite similar by s.c. and p.o. administration) was “good” and the “effects on the sleep wakefulness cycle compared with the mfu form” value ([2]; fu salt form, 3 and 10 mg/kg p.o.) was “same effects”.
